Reference: PubChem BioAssay (NCI)
Where “and” joins values, the source holds several entries; their conditions need not be identical. Equal entries are not always repeated.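 The compound was tested at five concentrations on cells cultured in 96-well plates, with a 48-hour exposure period. Abbreviation: GI50, concentration required for 50% inhibition of growth. At the TGI there is no net growth.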

Columns and labels:
Assay in all cases: growth of human tumour cells (NCI), 48 h
[1] = tested on: DLD-1 colon
[2] = tested on: LXFL 529 NSCLC
[3] = tested on: HOP-18 NSCLC
[4] = tested on: NCI-H226 lung
[5] = tested on: KM20L2 colon
[6] = tested on: M14 melanoma
[7] = tested on: M19-MEL melanoma
[8] = tested on: EKVX NSCLC
[9] = tested on: XF 498 CNS
[10] = tested on: DMS 273 small cell lung
[11] = tested on: SNB-78 CNS
[12] = tested on: RXF 393 renal
[13] = tested on: DMS 114 small cell lung
[14] = tested on: RXF-631 renal
[15] = tested on: PC-3 prostate
[16] = tested on: MDA-N

| Compound | TGI [1] | TGI [2] | TGI [3] | TGI [4] | TGI [5] | TGI [6] | TGI [7] | TGI [8] | TGI [9] | TGI [10] | TGI [11] | TGI [12] | TGI [13] | GI50 [8] | GI50 [9] | TGI [14] | GI50 [12] | TGI [15] | TGI [16] |
| --- | --- | --- | --- | --- | --- | --- | --- | --- | --- | --- | --- | --- | --- | --- | --- | --- | --- | --- | --- |
| O=C1C=C(N2CCCC2)C=C(N2CCCC2)C1 | > 100 µM | > 100 µM | > 100 µM | > 100 µM | > 100 µM | > 100 µM | 91.2 µM | > 100 µM | > 100 µM | > 100 µM | > 100 µM | > 100 µM | > 100 µM | – | – | – | – | – | – |
| O=C1Nc2cccc3ncn(c23)C2=C1CCCC2 | > 100 µM | > 100 µM | 83.8 µM | – | > 100 µM | – | > 100 µM | > 100 µM | – | > 100 µM | > 100 µM | > 100 µM | > 100 µM | – | – | – | – | – | – |
| COc1cc(C2C(Cl)C(=O)N2n2cnc3ccccc3c2=O)cc(OC)c1OC (stereo unspecified) | > 100 µM | > 100 µM | > 100 µM | > 100 µM | > 100 µM | > 100 µM | > 100 µM | > 100 µM | > 100 µM | > 100 µM | > 100 µM | > 100 µM | > 100 µM | – | – | – | – | – | – |
| CCN(CC)CCNC(=O)c1ccc([N+](=O)[O-])cc1OC | > 100 µM | > 100 µM | – | > 100 µM | > 100 µM | > 100 µM | > 100 µM | > 100 µM | – | > 100 µM | > 100 µM | > 100 µM | > 100 µM | – | – | – | – | – | – |
| CC(=O)O[C@H]1C(=O)[C@@]2(C)C([C@H](OC(=O)c3ccccc3)[C@]3(O)C[C@H](OC(=O)[C@H](O)[C@H](NC(=O)c4ccccc4)c4ccc(Cl)cc4)C(C)=C1C3(C)C)C1(OC(C)=O)CO[C@@H]1C[C@@H]2O (stereo partly specified) | – | 26 µM | – | 0.0497 µM | – | 0.027 µM | – | 40.6 µM | – | – | – | 0.0644 µM and 0.0869 µM | 0.000649 µM | 0.204 µM | 0.0182 µM | > 100 µM | 0.0187 µM | – | – |
| O=C1CC2CC=C[C@H]3c4cc5c(cc4C(=O)N1C23)OCO5 (stereo partly specified) | > 50 µM | > 50 µM | – | > 50 µM | > 50 µM | > 50 µM | > 50 µM | > 50 µM | – | > 50 µM | > 50 µM | > 50 µM | > 50 µM | – | – | – | – | – | – |
| CCOc1ccc(N2C(=O)C3c4[nH]c5ccccc5c4C4CCC(C(C)(C)C)CC4C3C2=O)cc1 (stereo unspecified) | > 100 µM | > 100 µM | > 100 µM | > 100 µM | > 100 µM | > 100 µM | – | > 100 µM | > 100 µM | > 100 µM | > 100 µM | 71 µM | > 100 µM | – | – | – | – | – | – |
| O=C(Cc1ccccc1)NN1C(=O)C(Cl)C1c1cccc(O)c1 (stereo unspecified) | 31.1 µM | 22.8 µM | 36.5 µM | 43.4 µM | 32.2 µM | 31.4 µM | 35.8 µM | 45.7 µM | 35.4 µM | 37.9 µM | 73.6 µM | 32.3 µM | 29.4 µM | – | – | – | – | – | – |
| O=C(O)C(CS)NCc1c2ccccc2[n+]([O-])c2ccccc12 (stereo unspecified) | > 100 µM | 84.3 µM | > 100 µM | > 100 µM | > 100 µM | > 100 µM | > 100 µM | > 100 µM | – | > 100 µM | > 100 µM | – | 68.6 µM | – | – | > 100 µM | – | – | – |
| Cc1c(NC(=O)C(=O)N=NC(=O)c2ccncc2)c(O)c2ccccc2c1O | 31.6 µM | 28.2 µM | 22.3 µM | 29.5 µM | 70.3 µM | 22.7 µM | 3.23 µM | 19.9 µM | – | 23.2 µM | 39.7 µM | 32.6 µM | 15.3 µM | – | – | > 100 µM | – | – | – |
| CC12CC3CC/C(=N\O)C(C1)C3(N1CCOCC1)C/C2=N/O (stereo unspecified) | – | – | – | > 100 µM | – | > 100 µM | – | > 100 µM | – | – | – | > 100 µM | – | – | – | – | – | > 100 µM | > 100 µM |
| CC(=O)OCCC1c2ccccc2-n2nc(-c3ccccc3)c(O)c21 (stereo unspecified) | – | – | – | 64.4 µM | – | 28.6 µM | – | 36 µM | – | – | – | 26 µM | – | – | – | – | – | 34.3 µM | 33.2 µM |
| O=C1C(C(O)(C(F)(F)Cl)C(F)(F)Cl)CCC1C(O)(C(F)(F)Cl)C(F)(F)Cl (stereo unspecified) | – | – | – | 9.46 µM | – | > 10 µM | – | > 10 µM | – | – | – | > 10 µM | – | – | – | – | – | > 10 µM | > 10 µM |
| N[C@H]1C2C3CC4C5CC(C42)C1(c1ccccc1)C53 (stereo partly specified) | > 100 µM | > 100 µM | > 100 µM | > 100 µM | > 100 µM | > 100 µM | > 100 µM | > 100 µM | > 100 µM | > 100 µM | > 100 µM | > 100 µM | > 100 µM | – | – | – | – | – | – |
| ClC(Cl)(Cl)C1CCOC1n1nc2ccccc2n1 (stereo unspecified) | – | – | – | > 100 µM | – | > 100 µM | – | > 100 µM | – | – | – | > 100 µM | – | – | – | – | – | > 100 µM | > 100 µM |
| O=[N+]([O-])c1cccc(N=C2c3ccccc3CN2c2cccc([N+](=O)[O-])c2)c1 | – | – | – | > 100 µM | – | > 100 µM | – | > 100 µM | – | – | – | > 100 µM | – | – | – | – | – | > 100 µM | > 100 µM |
